Assay results published in PubChem BioAssay (NCI).
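In this assay, cells in 96-well plates receive the compound at five concentrations for 48 hours. Endpoints are linearly interpolated between the surrounding concentrations. The concentration for full growth arrest is given as TGI.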

Experiments:
Experiment in all cases: DTP human tumour cell line panel, 48 h
786-0 renal = tested on: 786-0 renal
A498 renal = tested on: A498 renal
A549 NSCLC = tested on: A549 NSCLC
ACHN renal = tested on: ACHN renal
BT-549 breast = tested on: BT-549 breast
CCRF-CEM leukemia = tested on: CCRF-CEM leukemia
COLO 205 colon = tested on: COLO 205 colon
DU-145 prostate = tested on: DU-145 prostate
HCC-2998 colon = tested on: HCC-2998 colon
HCT-116 colon = tested on: HCT-116 colon
HCT-15 colon = tested on: HCT-15 colon
HL-60(TB) leukemia = tested on: HL-60(TB) leukemia
HOP-62 NSCLC = tested on: HOP-62 NSCLC
HOP-92 NSCLC = tested on: HOP-92 NSCLC
HS 578T breast = tested on: HS 578T breast
HT29 colon = tested on: HT29 colon
IGROV1 ovarian = tested on: IGROV1 ovarian
K-562 leukemia = tested on: K-562 leukemia
KM12 colon = tested on: KM12 colon
LOX IMVI melanoma = tested on: LOX IMVI melanoma
M14 melanoma = tested on: M14 melanoma
MALME-3M melanoma = tested on: MALME-3M melanoma
MCF7 breast = tested on: MCF7 breast
MDA-MB-231 breast = tested on: MDA-MB-231 breast
MDA-MB-435 = tested on: MDA-MB-435
MOLT-4 leukemia = tested on: MOLT-4 leukemia
NCI-H226 lung = tested on: NCI-H226 lung
NCI-H23 lung = tested on: NCI-H23 lung
NCI-H460 lung = tested on: NCI-H460 lung
NCI-H522 lung = tested on: NCI-H522 lung
NCI/ADR-RES ovarian = tested on: NCI/ADR-RES ovarian
OVCAR-3 ovarian = tested on: OVCAR-3 ovarian
OVCAR-4 ovarian = tested on: OVCAR-4 ovarian
OVCAR-5 ovarian = tested on: OVCAR-5 ovarian
OVCAR-8 ovarian = tested on: OVCAR-8 ovarian
PC-3 prostate = tested on: PC-3 prostate
RPMI-8226 leukemia = tested on: RPMI-8226 leukemia
RXF 393 renal = tested on: RXF 393 renal
SF-268 CNS = tested on: SF-268 CNS
SF-295 CNS = tested on: SF-295 CNS
SF-539 CNS = tested on: SF-539 CNS
SK-MEL-28 melanoma = tested on: SK-MEL-28 melanoma
SK-MEL-5 melanoma = tested on: SK-MEL-5 melanoma
SK-OV-3 ovarian = tested on: SK-OV-3 ovarian
SN12C renal = tested on: SN12C renal
SNB-19 CNS = tested on: SNB-19 CNS
SNB-75 CNS = tested on: SNB-75 CNS
SR leukemia = tested on: SR leukemia
SW-620 colon = tested on: SW-620 colon
T-47D breast = tested on: T-47D breast
TK-10 renal = tested on: TK-10 renal
U251 CNS = tested on: U251 CNS
UACC-62 melanoma = tested on: UACC-62 melanoma
UO-31 renal = tested on: UO-31 renal

Measured: TGI

CC1(C)O[C@@H]2[C@@H](COC(=O)c3ccccc3)C[C@@H](C#N)[C@@H]2O1
> 100 µM: all assays above
